Measured values reported in PMC9221509, “Discovery of a Novel Antimicrobial Peptide, Temporin-PKE, from the Skin Secretion of Pelophylax kl. esculentus, and Evaluation of Its Structure-Activity Relationships” (Biomolecules, 2022).
≈ marks a conversion by molar mass, not a printed value. Read-outs that look alike come from different tables or passages of the source. Non-standard residues stand in square brackets, D forms with d. Residues, ends and D or L forms follow the SMILES beside them. No end group written: not given here.

Tests used:
MRSA (B042 V2E1 A) = test: microbe, parasite or virus in culture; format: cell-based, methicillin-resistant Staphylococcus aureus; conditions: B042 V2E1 A; for MBC: 18 h; for MIC: 24 h
Procedure: (§1) The antimicrobial activities of peptides were evaluated against the Gram-positive bacteria, S. aureus (ATCC 6538), methicillin-resistant Staphylococcus aureus (MRSA) (NCTC 12493), Enterococcus faecalis (E. faecalis) (NCTC 12697); the Gram-negative bacteria, E. coli (ATCC CRM 8739), Klebsiella pneumoniae (K. pneumoniae) (ATCC 43816), Pseudomonas aeruginosa (P. aeruginosa) (ATCC CRM 9027); and the yeast, Candida albicans (C. albicans) (ATCC CRM 10231). Clinical isolates of MRSA (B042 V2E1 A), E. coli (ATCC BAA-2340), K. pneumoniae (ATCC BAA-1705), and P. aeruginosa (B004 V2S2 B) were also used to determine their antimicrobial activities. The suspension of microorganisms in the logarithmic growth phase with a specific final density (Gram-negative and Gram-positive bacteria: 5 × 10^5 CFU/mL; yeast: 1 × 10^6 CFU/mL) was incubated with different peptide concentrations from 1 µM to 512 µM at 37 °C for 24 h. PBS was used as the negative control, and norfloxacin and amphotericin B were selected as the positive control for bacteria and yeast, respectively. Since the Norfloxacin had weak activities against P. aeruginosa (B004 V2S2 B) and K. pneumoniae (ATCC BAA 1705), gentamicin was used as the positive control for these two bacterial strains. The absorbance of each well was obtained using a microplate reader (EL808, Biolise BioTek, Winooski, VT, USA) set at 550 nm wavelength. The MIC value was the lowest concentration of a peptide that inhibits visible bacterial growth. Once the MIC values were determined, an aliquot from the bacterial culture exposed to the peptide at or above its MIC value was inoculated on a Mueller Hinton agar (MHA) and was incubated at 37 for 18 h. The MBC value was the lowest concentration of a peptide that kills 99.9% of bacteria.

MRSA (NCTC 12493) = test: microbe, parasite or virus in culture; format: cell-based, methicillin-resistant Staphylococcus aureus; conditions: for MBC: NCTC 12493, 18 h; for MIC: NCTC 12493, 24 h
Procedure: as §1

[1] = tested on: K. pneumoniae (ATCC 43816); test: microbe, parasite or virus in culture; format: cell-based, Klebsiella pneumoniae; conditions: for MBC: ATCC 43816, 18 h; for MIC: ATCC 43816, 24 h
Procedure: as §1

[2] = tested on: K. pneumoniae (ATCC BAA-1705); test: microbe, parasite or virus in culture; format: cell-based, Klebsiella pneumoniae; conditions: for MBC: ATCC BAA-1705, 18 h; for MIC: ATCC BAA-1705, 24 h
Procedure: as §1

S. aureus (ATCC 6538) = test: microbe, parasite or virus in culture; format: cell-based, Staphylococcus aureus; conditions: for MBC: ATCC 6538, 18 h; for MIC: ATCC 6538, 24 h
Procedure: as §1

[3] = tested on: E. coli (ATCC CRM 8739) biofilm; format: cell-based, Escherichia coli; conditions: ATCC CRM 8739, 24 h
Procedure: (§2) The anti-biofilm activities of the peptides against S. aureus (ATCC 6538), MRSA (NCTC 12493), E. faecalis (NCTC 12697), E. coli (ATCC CRM 8739), K. pneumoniae (ATCC 43816), and P. aeruginosa (ATCC CRM 9027), were evaluated. For the MBIC assay, 99 µL of bacterial suspension (5 × 10^5 CFU/mL) was mixed with 1 µL of serial dilutions (from 100 µM to 51,200 µM) of temporin-PKE and its analogues in a 96-well plate, and the plate was incubated in a moist shaking incubator at a speed of 200 rpm at 37 °C for 24 h. For the MBEC assay, 100 µL of bacterial suspension (5 × 10^5 CFU/mL) in each well was seeded in a new 96-well plate, and the plate was put into the same shaking incubator for 24 h incubation to allow biofilm formation on the well. After biofilm formation, the biofilm in the plate was washed with PBS twice. The PBS was aspirated between washes to remove planktonic bacterial cells. The washed biofilm in each well was treated with 100 µL of serial dilutions (from 1 µM to 512 µM) of the test peptides. Then, the plate was incubated in the same shaking incubator for another 24 h. After being washed by PBS twice and fixed with methanol, the biofilm in each well was incubated with 100 µL of 0.1% crystal violet for 30 min, and the stained biofilm was dissolved in 100 µL of glacial acidic acid after drying. The solutions were transferred to a new microplate, and the absorbance of each well was measured using a microplate reader (EL808, Biolise BioTek, Winooski, VT, USA) set to 595 nm wavelength. The MBIC was the minimum concentration of the peptide showing no biofilm formation. The MBEC is the lowest concentration of the peptide capable of eradicating the mature biofilms, which had no biofilm in the well.

NCI-H157 cells = format: cell-based; conditions: 24 h
Procedure: (§3) The cytotoxicity of the peptides against the human epidermal keratinocyte line, HaCaT, was tested using the MTT cell viability assay as described in a previous study. The 100 µL of the cell suspension in a complete DMEM medium with a density of 10,000 cells/mL was seeded in a 96-well plate and incubated overnight at 37 °C in a humidified 5% CO2 atmosphere. After 4 h of starvation in a serum-free medium, 100 μL of serial dilutions (from 10^−9 M to 10^−4 M) of temporin-PKE and its analogues was added to each well, and the plate was incubated for 24 h. The serum-free medium and 0.1% Triton X-100 were used as the negative and positive control, respectively. Then, MTT solution, at a volume of 10 μL, was added to each well, and the plate was incubated for 2 h. After this, the medium was replaced by 100 μL of DMSO, and plates were put in the shaking incubator for 15 min. The absorbance of each well was measured using a microplate reader (EL808, Biolise BioTek, Winooski, VT, USA) set to a wavelength of 570 nm. The equation used to calculate the viability of the cells is shown below: Cell viability (%)=A−Ab/An−Ab×100% where A represents the absorbance of each treatment group, Ab represents the average absorbance of the wells in the blank control group (cells not exposed to the test peptide and MTT), and An represents the average absorbance of the wells in the negative control group (cells not exposed to the test peptide).
(§4) The anti-proliferative activities of peptides against HCT-116, NCI-H838 (H838), U251MG, PC-3, and NCI-H157 cell lines were determined by MTT cell viability assay, and the details were described in Section 2.9.

NCI-H838 (H838) cells = format: cell-based; conditions: 24 h
Procedure: as §3, §4

[4] = tested on: K. pneumoniae (ATCC 43816) biofilm; format: cell-based, Klebsiella pneumoniae; conditions: ATCC 43816, 24 h
Procedure: as §2

Compound | MBC (MRSA (B042 V2E1 A)) [µM] | MIC (MRSA (B042 V2E1 A)) [µM] | MBC (MRSA (NCTC 12493)) | MIC (MRSA (NCTC 12493)) [µM] | MBC [2] [µM] | MIC [2] [µM] | MBC (S. aureus (ATCC 6538)) [µM] | MIC (S. aureus (ATCC 6538)) [µM] | MBIC [3] [µM] | IC50 (NCI-H157 cells) [µM] | IC50 (NCI-H838 (H838) cells) [µM] | MBIC [4] | MBC ([1]; read-out: MBC) [µM] | MIC ([1]; read-out: MIC) [µM] | MBC ([2]; read-out: MBC) [µM] | MIC ([2]; read-out: MIC) [µM] | also measured
FLPKIIGKLSSKLPKIF-NH2 [Temporin-PKE-4K] | 16 | 16 | 32 µM | 32 | 32 | 32 | 32 | 32 | 128 | 27.8 | 35.3 | 256 µM | – | – | – | – | MBC [1]: 16 µM; MIC [1]: 16 µM
FLPLIIGALSSLLPKIF-NH2 [Temporin-PKE] | – | – | 2/2 μM | – | – | – | 2 | 2 | >512 | 17.4 | 16.4 | >512 µM | >512 | >512 | >512 | >512 | MBC (MRSA (B042 V2E1 A); read-out: MBC): 8 µM; MIC (MRSA (B042 V2E1 A); read-out: MIC): 4 µM; MIC (MRSA (NCTC 12493); read-out: MIC): 2 µM
CC[C@@H](C)[C@@H](NC(=O)[C@H](CCCCN)NC(=O)[C@@H]1CCCN1C(=O)[C@H](CC(C)C)NC(=O)[C@H](CC(C)C)NC(=O)[C@H](CO)NC(=O)[C@H](CO)NC(=O)[C@H](CC(C)C)NC(=O)[C@H](C)NC(=O)CNC(=O)[C@H](NC(=O)[C@H](NC(=O)[C@H](CC(C)C)NC(=O)[C@@H]1CCCN1C(=O)[C@H](CC(C)C)NC(=O)[C@@H](N)Cc1ccccc1)[C@H](C)CC)[C@H](C)CC)C(=O)N[C@@H](Cc1ccccc1)C(N)=O [Temporin-PKE-3i] (H-FLPL[dI][dI]GALSSLLPK[dI]F-NH2) | 64 (≈ 118 µg/mL) | 64 (≈ 118 µg/mL) | 64 µM (≈ 118 µg/mL) | 64 (≈ 118 µg/mL) | – | – | 32 (≈ 58.9 µg/mL) | 32 (≈ 58.9 µg/mL) | >512 | 71.2 | 193 | >512 µM | >512 | >512 | >512 | >512 | –
FLPLIIGKLSSLLPKIF-NH2 [Temporin-PKE-2K] | 2 | 2 | 2 µM | 2 | 16 | 16 | 2 | 2 | 64 | 2.78 | 3.07 | 128 µM | 32 | 16 | – | – | –
CC[C@@H](C)[C@@H](NC(=O)[C@H](CCCCN)NC(=O)[C@@H]1CCCN1C(=O)[C@H](CC(C)C)NC(=O)[C@H](CC(C)C)NC(=O)[C@H](CO)NC(=O)[C@H](CO)NC(=O)[C@H](CC(C)C)NC(=O)[C@H](C)NC(=O)CNC(=O)[C@@H](NC(=O)[C@@H](NC(=O)[C@H](CC(C)C)NC(=O)[C@@H]1CCCN1C(=O)[C@H](CC(C)C)NC(=O)[C@@H](N)Cc1ccccc1)[C@@H](C)CC)[C@@H](C)CC)C(=O)N[C@@H](Cc1ccccc1)C(N)=O [Temporin-PKE-i] (H-FLPLIIGALSSLLPK[dI]F-NH2) | 4 (≈ 7.37 µg/mL) | 4 (≈ 7.37 µg/mL) | 4 µM (≈ 7.37 µg/mL) | 4 (≈ 7.37 µg/mL) | – | – | 2 (≈ 3.68 µg/mL) | 2 (≈ 3.68 µg/mL) | >512 | 2.94 | 5.28 | >512 µM | >512 | >512 | >512 | >512 | –
FLPKIIGKLSSLLPKIF-NH2 [Temporin-PKE-3K] | 2 | 2 | 2/2 μM | – | 8 | 8 | 2 | 2 | 16 | 3.29 | 0.51 | 32 µM | – | 4 | – | – | MIC (MRSA (NCTC 12493); read-out: MIC): 2 µM; MBC [1]: 4/4 μM
FLPLIIGALSSKLPKIF-NH2 [Temporin-PKE-K12] | 4 | 4 | 4 µM | 4 | 64 | 64 | 4 | 4 | 64 | 24 | 22.7 | 512/>512 μM | 64 | 32 | – | – | –
